Assays:
Format in all cases: cell-based
[1] = test system: Human d7 Cultured Dendritic Cells; assay: Flow cytometry phenotype analysis of human d7 cultured dendritic cells after 24 h stimulation; settings: for HLA-DR MFI: 7 day DCs, 24 h stimulation
[2] = test system: 6-7 day cultured human dendritic cells; assay: ELISA of cytokines (IL-12 p40, IL-12 p70, TNF-α) in 22 h induction supernatants of cultured human dendritic cells; settings: for IL-12 p40 / IL-12 p70 / TNF-α: 22 Hrs
Source text: Recent articles have described how human dendritic cells can be derived in vitro from CD14 positive monocyte precursors in peripheral blood. A “buffy coat” preparation can now be commonly obtained from a unit of normal human peripheral blood from a blood bank on request. The leukocyte fraction was harvested from this buffy coat preparation using standard ficoll centrifugation techniques. Subsequently, the leukocyte fraction was labeled with anti-CD 14 antibody coupled to magnetic microbeads. This preparation was then passed over a magnet (Miltanyi Biotech) and CD14 positive monocytes were collected. These CD14 positive monocyte precursors were then cultured for 5-7 days in vitro (5×10^5 cells/ml) with GM-CSF (20 ng/ml) for the duration of the culture. […] After the 24 hour in vitro stimulation culture, cells were washed twice and stained with a panel of monoclonal antibodies specific for different cell surface activation and co-receptor molecules found on mature, activated DCs.
Supernatants from DCs stimulated with LPS, MPL® immunostimulant-S, RC-527, RC-529, and RC-544 were collected and tested by ELISA analysis for cytokines.

[3] = test system: murine bone marrow derived DCs + D011.10 T cells; assay: APC function of ova-pulsed, lipid A potentiated murine DCs co-cultured with D011.10 T cells (cytokine ELISA)
Source text: These antigen pulsed, lipid A potentiated cells were then washed thoroughly and titered against ova-specific T cell effector cells in vitro at an APC: T cell ratio titration of 1:1 out to as high as 1:512. The effector T cells in this in vitro assay were the antigen naive, but antigen (ova) specific, MHC restricted I-A^d splenic T cells from transgenic D011.10 mice.
D011.10 TCR-transgenic mice were used in these experiments as donors of antigen specific naive T cells. In their germline DNA these mice contain rearranged TCR-Vα and -Vβ genes that encode a T cell receptor (TCR) specific for the ovalbumin peptide 323-339 bound to IA^d (Balb/c) Class II MHC molecules. The transgenic ova peptide specific TCR can be detected with the KJ1-26 monoclonal antibody (mAb) that binds only to this particular TCR heterodimer. These cells provide a ready source of “normal” antigen (ova)-specific effector T cells. Effective antigen-mediated APC stimulation of those T cells is generally measured by ELISA quantitation of IL-2 or IFN-γ in the culture supernatants of DC+D011.10 T cells after 24-48 hours of incubation.
In one experiment, murine bone marrow derived DCs (6 day cultures) were pulsed with ova (50 μg/ml-5×10^5 cells/ml) and then potentiated overnight with LPS(R595), MPL® immunostimulant-S, RC-527, RC-529 or RC-544 prior to being cultured together with naive D011.10 effector T cells (FIGS. 1-7). The APC function of these DCs as measured by their ability to stimulate IL-2, IFN-γ IL-12 (p70) and IL-12 (p40) secretion in the DC+D011.10 co-culture systems was analyzed. All of the data shown in FIGS. 1-7 was developed from DCs maintained in lipid A induction cultures for either 15 or 38 hours prior to use in the T cell assay.

[4] = test system: cultured human DCs + autologous T cells
[5] = Exp. 091698, 24 h, LPS 10 ng/ml, others 100 ng/ml
[6] = Exp. 092398, 24 h, LPS 10 ng/ml, others 100 ng/ml
[7] = Exp. 093098, 24 h, LPS 10 ng/ml, others 100 ng/ml
[8] = Exp. # 092398, Day 7, LPS 10 ng/ml, others 100 ng/ml
[9] = Exp. # 093098, LPS 10 ng/ml, others 100 ng/ml

SMILES: CCCCCCCCCCCC(=O)OC(CCCCCCCCCCC)CC(=O)NC(CO)COC1OC(CO)C(OP(=O)(O)O)C(OC(=O)CC(CCCCCCCCCCC)OC(=O)CCCCCCCCCCC)C1NC(=O)CC(CCCCCCCCCCC)OC(=O)CCCCCCCCCCC (centres unmarked) [RC-544]
- CD 1a % positive cells [1, 5]: 11.6%
- CD 1a MFI [1, 5]: 7.38
- CD 4 % positive cells [1, 5]: 70.6%
- CD 4 MFI [1, 5]: 2.17
- CD 14 % positive cells [1, 5]: 7.6%
- CD 35 % positive cells [1, 5]: 52.5%
- CD 35 MFI [1, 5]: 2.85
- CD 40 MFI [1, 5]: 31.8
- CD 44 MFI [1, 5]: 242
- CD 54 MFI [1, 5]: 26.1
- CD 62 L % positive cells [1, 5]: 11.6%
- CD 69 % positive cells [1, 5]: 10.8%
- CD 80 % positive cells [1, 5]: 99.2%
- CD 80 MFI [1, 5]: 5.99
- CD 83 % positive cells [1, 5]: 94.3%
- CD 83 MFI [1, 5]: 2.72
- CD 86 % positive cells [1, 5]: 99.7%
- CD 86 MFI [1, 5]: 15.3
- CD 95 % positive cells [1, 5]: 86.0%
- CD 95 MFI [1, 5]: 1.31
- HLA-DR MFI ([1]; Exp. 091698, LPS 10 ng/ml, others 100 ng/ml): 544-S 60.8
- CD 1a % positive cells [1, 6]: 75.6%
- CD 1a MFI [1, 6]: 4.44
- CD 4 % positive cells [1, 6]: 75.7%
- CD 4 MFI [1, 6]: 2.80
- CD 14 % positive cells [1, 6]: 5.0%
- CD 35 % positive cells [1, 6]: 59.1%
- CD 35 MFI [1, 6]: 2.98
- CD 40 MFI [1, 6]: 33.7
- CD 54 MFI [1, 6]: 32.7
- CD 62 L % positive cells [1, 6]: 7.1%
- CD 69 % positive cells [1, 6]: 10.1%
- CD 80 % positive cells [1, 6]: 99.1%
- CD 80 MFI [1, 6]: 7.56
- CD 83 % positive cells [1, 6]: 97.1%
- CD 83 MFI [1, 6]: 3.52
- CD 86 % positive cells [1, 6]: 99.9%
- CD 86 MFI [1, 6]: 26.4
- CD 95 % positive cells [1, 6]: 90.6%
- CD 95 MFI [1, 6]: 1.40
- αC5aR + GAR Alexa % positive cells [1, 6]: 45.9%
- CD 44 MFI ([1]; Exp. 092398, 24 h, LPS 10 ng/ml, others 100 ng/ml, values printed with a trailing +): 426+
- GAR-Alexa % positive cells ([1]; Exp. 092398, 24 h, secondary reagent staining, LPS 10 ng/ml, others 100 ng/ml): 3.9%
- HLA-DR MFI ([1]; Exp. 092398, LPS 10 ng/ml, others 100 ng/ml): 155.2
- CCR 6 % positive cells [1, 7]: 5.8%
- CD 1a % positive cells [1, 7]: 78.1%
- CD 1a MFI [1, 7]: 6.06
- CD 3 % positive cells [1, 7]: 26.8%
- CD 3 MFI [1, 7]: 3.86
- CD 4 % positive cells [1, 7]: 79.4%
- CD 4 MFI [1, 7]: 3.11
- CD 11c % positive cells [1, 7]: 91.0%
- CD 11c MFI [1, 7]: 6.23
- CD 14 % positive cells [1, 7]: 4.1%
- CD 40 MFI [1, 7]: 30.4
- CD 54 MFI [1, 7]: 36.8
- CD 62 L % positive cells [1, 7]: 4.0%
- CD 80 % positive cells [1, 7]: 99.0%
- CD 80 MFI [1, 7]: 10.9
- CD 83 % positive cells [1, 7]: 92.5%
- CD 83 MFI [1, 7]: 3.43
- CD 86 % positive cells [1, 7]: 99.8%
- CD 86 MFI [1, 7]: 26.3
- CD 123 % positive cells [1, 7]: 48.0%
- CD 123 MFI [1, 7]: 1.85
- αC5aR + Alexa 488 % positive cells [1, 7]: 43.3%
- αC5aR + Alexa 488 MFI [1, 7]: 9.41
- HLA-DR MFI ([1]; Exp. 093098, LPS 10 ng/ml, others 100 ng/ml): 134.3
- stimulating the expression of HLA-DR and co-stimulatory molecules (in words) ([1]; RC-529 compared with RC-544, three experiments): very comparable effects
- CD40 and CD83 expression (in words) ([1]; RC-544 compared with RC-529): slightly higher levels of CD40 and CD83 expression than did RC-529
- IL-12 p40 ([2]; Exp. # 091698, LPS 10 ng/ml, others 100 ng/ml): 42,500 pg/mL/5 × 10^5 Cells
- IL-12 p70 ([2]; Exp. # 092398 (second line, Day7), LPS 10 ng/ml, others 100 ng/ml): 175.2 pg/ml/5 × 10^5 Cells
- IL-12 p40 [2, 8]: 80,500 pg/mL/5 × 10^5 Cells
- TNF-α [2, 8]: 5.650 pg/mL/5 × 10^5 Cells
- IL-12 p70 ([2]; Exp. # 092398 as printed (first line of section), LPS 10 ng/ml, others 100 ng/ml): 8.8 pg/ml/5 × 10^5 Cells
- IL-12 p70 ([2]; Exp. # 092398 as printed (third line of section), LPS 10 ng/ml, others 100 ng/ml): 55.7 pg/ml/5 × 10^5 Cells
- IL-12 p40 [2, 9]: 62,000 pg/mL/5 × 10^5 Cells
- TNF-α [2, 9]: 880 pg/mL/5 × 10^5 Cells
- IL-12 (p40) expression (in words) ([2]; all three experiments, LPS 10 ng/ml, others 100 ng/ml): also stimulated IL-12 (p40) responses
- IL-12 (p70) (in words) ([2]; the one donor in which LPS and MPL-S gave a significant amount): high levels of IL-12 (p70)
- TNF-α secretion (in words) ([2]; three donors): moderately lower than the effect due to RC-527
- IL-2 secretion (in words) ([3]; DCs prestimulated 15 hours, all T cell:APC ratios, FIG. 1): comparable in their ability to stimulate IL-2 secretion
- IL-12 (p70) in DC+D011.10 co-cultures (in words) ([3]; FIG. 5): overall weaker in their effect than LPS and RC-527
- IL-12 (p70) at T cell:APC ratio 16:1 (in words) ([3]; FIG. 6): substantially higher stimulation effect than that induced by RC-529
- release of IL-12 (p40) homodimer in DC+D011.10 co-cultures (in words) ([3]; FIG. 7): weaker in their effect than LPS and RC-527
- T cell proliferation / DC activation, CPM 3H-thymidine response (in words) [4]: highest levels of DC activation compared to MPL® immunostimulant

— patent US20040033213A1, “Methods of modulating dendritic cells using adjuvants” (Corixa Corporation, priority 2002, published 2004)
